We go through 16 molecules from patent US9073855B2, “BCL-2 selective apoptosis-inducing agents for the treatment of cancer and immune diseases” (AbbVie Inc., priority 2008, dated 2015).

The target in one experiment is GST-Bcl-2 (Homo sapiens, UniProt P10415). Description: TR-FRET binding assay, GST-Bcl-2 with F-Bak peptide probe. The following applies: for Ki: TR-FRET Binding Affinity, GST-Bcl-2, F-Bak peptide probe. The procedure, abridged:
(§1)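 Compounds were serially diluted in DMSO from a 50 μM starting solution (2× the starting concentration; 10% DMSO). Plates were incubated for 3 h at room temperature, and TR-FRET was read with 340/35 nm excitation and emission at 520/525 nm (F-Bak) and 495/510 nm (Tb antibody). Ki values were calculated using Wang's competitive-binding equation.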

The next experiment concerns the target GST-Bcl-XL (Homo sapiens, UniProt Q07817). In words: TR-FRET binding assay, GST-Bcl-XL with F-Bak peptide probe. The conditions noted are these: TR-FRET Binding Affinity, GST-Bcl-XL, F-Bak peptide probe. The procedure, abridged: as §1
(TR-FRET usually uses a lanthanide donor and a delayed reading to cut background.)

Another experiment has as its system FL5.12/Bcl-2 cells. Description: FL5.12/Bcl-2 cell viability assay under IL-3 withdrawal (CellTitre Glo). The conditions noted are these: Mus musculus, IL-3 withdrawn 48 hrs, then 24 hrs with compound. It is filed as cell-based, murine. The procedure, abridged:
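Bcl-2-overexpressing murine FL5.12 transfectants underwent IL-3 removal for 48 hrs before a 24 hr compound treatment. Cell viability was quantified with CellTitre Glo.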

Sequence of GST-Bcl-XL (Q07817 whole entry): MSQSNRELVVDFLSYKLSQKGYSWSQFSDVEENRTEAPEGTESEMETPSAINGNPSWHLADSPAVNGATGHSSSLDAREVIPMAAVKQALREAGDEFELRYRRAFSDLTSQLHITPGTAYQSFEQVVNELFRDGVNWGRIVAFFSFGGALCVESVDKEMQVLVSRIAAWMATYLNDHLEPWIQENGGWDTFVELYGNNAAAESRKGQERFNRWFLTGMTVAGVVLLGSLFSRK
Sequence of GST-Bcl-2 (P10415 whole entry): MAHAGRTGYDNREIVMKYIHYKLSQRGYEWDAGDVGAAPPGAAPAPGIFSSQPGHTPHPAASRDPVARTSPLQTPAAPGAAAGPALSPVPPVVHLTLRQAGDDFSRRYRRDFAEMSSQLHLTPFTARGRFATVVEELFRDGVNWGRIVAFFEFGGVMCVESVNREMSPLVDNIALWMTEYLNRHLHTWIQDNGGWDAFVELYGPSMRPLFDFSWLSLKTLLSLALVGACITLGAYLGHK

Consider `COCCCNc1ccc(S(=O)(=O)NC(=O)c2ccc(N3CCN(CC4=C(c5ccc(Cl)cc5)CC(C)(C)CC4)CC3)cc2Oc2cccc3[nH]ccc23)cc1[N+](=O)[O-]` [Example 318, 4-(4-{[2-(4-chlorophenyl)-4,4-dimethylcyclohex-1-en-1-yl]methyl}piperazin-1-yl)-2-(1H-indol-4-yloxy)-N-({4-[(3-methoxypropyl)amino]-3-nitrophenyl}sulfonyl)benzamide], for which the inhibitory constant (Ki) at GST-Bcl-2 was 1.47 nM; on GST-Bcl-XL it was 151 nM. Besides, the concentration for a half-maximal effect (EC50) in the experiment on FL5.12/Bcl-2 cells was found to be 77 nM.

In the case of `CC1(C)CCC(CN2CCN(c3ccc(C(=O)NS(=O)(=O)c4ccc(NCCC#N)c([N+](=O)[O-])c4)c(Oc4ccc5[nH]ccc5c4)c3)CC2)=C(c2ccc(Cl)cc2)C1` [Example 319, 4-(4-{[2-(4-chlorophenyl)-4,4-dimethylcyclohex-1-en-1-yl]methyl}piperazin-1-yl)-N-({4-[(2-cyanoethyl)amino]-3-nitrophenyl}sulfonyl)-2-(1H-indol-5-yloxy)benzamide], the results for the Ki at GST-Bcl-2 and on GST-Bcl-XL were 0.413 nM and 208 nM, respectively. Further, the concentration giving a half-maximal response (EC50) with FL5.12/Bcl-2 cells is 31.4 nM.

Turning to `CC1(C)CCC(CN2CCN(c3ccc(C(=O)NS(=O)(=O)c4ccc(NCCC#N)c([N+](=O)[O-])c4)c(Oc4cccc5[nH]ccc45)c3)CC2)=C(c2ccc(Cl)cc2)C1` [Example 320, 4-(4-{[2-(4-chlorophenyl)-4,4-dimethylcyclohex-1-en-1-yl]methyl}piperazin-1-yl)-N-({4-[(2-cyanoethyl)amino]-3-nitrophenyl}sulfonyl)-2-(1H-indol-4-yloxy)benzamide], the results for the Ki on GST-Bcl-2 and at GST-Bcl-XL were 1.24 nM and 129 nM, respectively. Besides, the concentration for a half-maximal effect (EC50) in the experiment with FL5.12/Bcl-2 cells was 41.6 nM.

Take `CC1(C)CCC(CN2CCN(c3ccc(C(=O)NS(=O)(=O)c4ccc(NCC56CC7CC(C5)C(O)[C@H](C7)C6)c([N+](=O)[O-])c4)c(Oc4ccc5[nH]ccc5c4)c3)CC2)=C(c2ccc(Cl)cc2)C1` (stereo partly drawn) [Example 321, 4-(4-{[2-(4-chlorophenyl)-4,4-dimethylcyclohex-1-en-1-yl]methyl}piperazin-1-yl)-N-{[4-({[(3R)-4-hydroxy-1-adamantyl]methyl}amino)-3-nitrophenyl]sulfonyl}-2-(1H-indol-5-yloxy)benzamide]: the inhibition constant Ki at GST-Bcl-2 was 0.689 nM; on GST-Bcl-XL, above 660 nM. Moreover, in the experiment on FL5.12/Bcl-2 cells, the EC50 worked out at 29.1 nM.

As to `CC1(C)CCC(CN2CCN(c3ccc(C(=O)NS(=O)(=O)c4ccc(NCC56CC7CC(C5)C(O)C(C7)C6)c([N+](=O)[O-])c4)c(Oc4ccc5[nH]ccc5c4)c3)CC2)=C(c2ccc(Cl)cc2)C1` (stereo not drawn) [Example 322, 4-(4-{[2-(4-chlorophenyl)-4,4-dimethylcyclohex-1-en-1-yl]methyl}piperazin-1-yl)-N-{[4-({[Cis-4-hydroxy-1-adamantyl]methyl}amino)-3-nitrophenyl]sulfonyl}-2-(1H-indol-5-yloxy)benzamide], the inhibition constant (Ki) is 0.184 nM on GST-Bcl-2 and above 660 nM on GST-Bcl-XL. In addition, the “Binding selectivity ratio (Bcl-XL Ki/Bcl-2 Ki)” value on GST-Bcl-2 (ratio of TR-FRET Ki values, Bcl-XL over Bcl-2) is on record as above 3591.4. Also, in the experiment on FL5.12/Bcl-2 cells, the concentration for a half-maximal effect (EC50) worked out at 44.5 nM.

As for `CC1(C)CCC(CN2CCN(c3ccc(C(=O)NS(=O)(=O)c4ccc(NCCC(F)(F)F)c([N+](=O)[O-])c4)c(Oc4cccc5[nH]ccc45)c3)CC2)=C(c2ccc(Cl)cc2)C1` [Example 323, 4-(4-{[2-(4-chlorophenyl)-4,4-dimethylcyclohex-1-en-1-yl]methyl}piperazin-1-yl)-2-(1H-indol-4-yloxy)-N-({3-nitro-4-[(3,3,3-trifluoropropyl)amino]phenyl}sulfonyl)benzamide], the results for the Ki at GST-Bcl-2 and at GST-Bcl-XL were 0.949 nM and above 660 nM, respectively. The EC50 in the experiment with FL5.12/Bcl-2 cells is 92.1 nM.

For the molecule `CC1(C)CCC(CN2CCN(c3ccc(C(=O)NS(=O)(=O)c4ccc(NCCC(F)(F)F)c([N+](=O)[O-])c4)c(Oc4ccc5[nH]ccc5c4)c3)CC2)=C(c2ccc(Cl)cc2)C1` [Example 324, 4-(4-{[2-(4-chlorophenyl)-4,4-dimethylcyclohex-1-en-1-yl]methyl}piperazin-1-yl)-2-(1H-indol-5-yloxy)-N-({3-nitro-4-[(3,3,3-trifluoropropyl)amino]phenyl}sulfonyl)benzamide], the inhibitory constant (Ki) on GST-Bcl-2 was 1.48 nM; at GST-Bcl-XL, above 660 nM. The concentration for a half-maximal effect (EC50) with FL5.12/Bcl-2 cells came to 134 nM.

As to `CC1(C)CCC(CN2CCN(c3ccc(C(=O)NS(=O)(=O)c4cnc(NCC5CCOCC5)c(Br)c4)c(Oc4cccc5[nH]ccc45)c3)CC2)=C(c2ccc(Cl)cc2)C1` [Example 325, N-({5-bromo-6-[(tetrahydro-2H-pyran-4-ylmethyl)amino]pyridin-3-yl}sulfonyl)-4-(4-{[2-(4-chlorophenyl)-4,4-dimethylcyclohex-1-en-1-yl]methyl}piperazin-1-yl)-2-(1H-indol-4-yloxy)benzamide], the results for the Ki at GST-Bcl-2 and on GST-Bcl-XL were 2.33 nM and above 660 nM, respectively. Moreover, the EC50 in the experiment with FL5.12/Bcl-2 cells came out at 256 nM.

In the case of `CC1(C)CCC(CN2CCN(c3ccc(C(=O)NS(=O)(=O)c4ccc(NCC5CCS(=O)(=O)C5)c([N+](=O)[O-])c4)c(Oc4cccc5[nH]ccc45)c3)CC2)=C(c2ccc(Cl)cc2)C1` (stereo not shown) [Example 326, 4-(4-{[2-(4-chlorophenyl)-4,4-dimethylcyclohex-1-en-1-yl]methyl}piperazin-1-yl)-N-[(4-{[(1,1-dioxidotetrahydrothien-3-yl)methyl]amino}-3-nitrophenyl)sulfonyl]-2-(1H-indol-4-yloxy)benzamide], the Ki is 0.116 nM at GST-Bcl-2 and above 660 nM at GST-Bcl-XL. For the same molecule, in the experiment on FL5.12/Bcl-2 cells, the half-maximal effective concentration (EC50) came to 35.1 nM.

As for `CC1(C)CCC(CN2CCN(c3ccc(C(=O)NS(=O)(=O)c4ccc(OCC5(F)CCOCC5)c([N+](=O)[O-])c4)c(Oc4ccc5[nH]ccc5c4)c3)CC2)=C(c2ccc(Cl)cc2)C1` [Example 327, 4-(4-{[2-(4-chlorophenyl)-4,4-dimethylcyclohex-1-en-1-yl]methyl}piperazin-1-yl)-N-({4-[(4-fluorotetrahydro-2H-pyran-4-yl)methoxy]-3-nitrophenyl}sulfonyl)-2-(1H-indol-5-yloxy)benzamide], the Ki on GST-Bcl-2 is 0.031 nM; on GST-Bcl-XL, 95.6 nM. Moreover, the EC50 with FL5.12/Bcl-2 cells came to 6.57 nM.

For the molecule `CNc1ccc(S(=O)(=O)NC(=O)c2ccc(N3CCN(CC4=C(c5ccc(Cl)cc5)CC(C)(C)CC4)CC3)cc2Oc2ccc3[nH]ccc3c2)cc1S(=O)(=O)C(F)(F)F` [Example 328, 4-(4-{[2-(4-chlorophenyl)-4,4-dimethylcyclohex-1-en-1-yl]methyl}piperazin-1-yl)-2-(1H-indol-5-yloxy)-N-({4-(methylamino)-3-[(trifluoromethyl)sulfonyl]phenyl}sulfonyl)benzamide], the inhibition constant (Ki) at GST-Bcl-2 was 1.86 nM; on GST-Bcl-XL it was above 660 nM. In the experiment with FL5.12/Bcl-2 cells, the concentration for a half-maximal effect (EC50) was above 500 nM.

In the case of `CC1(C)CCC(CN2CCN(c3ccc(C(=O)NS(=O)(=O)c4cnc(OCC5CCOCC5)c(Br)c4)c(Oc4ccc5[nH]ccc5c4)c3)CC2)=C(c2ccc(Cl)cc2)C1` [Example 329, N-{[5-bromo-6-(tetrahydro-2H-pyran-4-ylmethoxy)pyridin-3-yl]sulfonyl}-4-(4-{[2-(4-chlorophenyl)-4,4-dimethylcyclohex-1-en-1-yl]methyl}piperazin-1-yl)-2-(1H-indol-5-yloxy)benzamide], the Ki on GST-Bcl-2 was 0.285 nM; at GST-Bcl-XL, above 660 nM. The EC50 with FL5.12/Bcl-2 cells was 127 nM.

In the case of `CC(C)Oc1cc(-c2ccc(Cl)cc2)c(CN2CCN(c3ccc(C(=O)NS(=O)(=O)c4ccc(NCC5CCOCC5)c([N+](=O)[O-])c4)c(Oc4ccc5[nH]ccc5c4)c3)CC2)cn1` [Example 330, 4-(4-{[4-(4-chlorophenyl)-6-isopropoxypyridin-3-yl]methyl}piperazin-1-yl)-2-(1H-indol-5-yloxy)-N-({3-nitro-4-[(tetrahydro-2H-pyran-4-ylmethyl)amino]phenyl}sulfonyl)benzamide], the Ki on GST-Bcl-2 was 74.9 nM; on GST-Bcl-XL it was above 660 nM. Further, the EC50 with FL5.12/Bcl-2 cells was above 500 nM.

Regarding `CC1(C)CCC(CN2CCN(c3ccc(C(=O)NS(=O)(=O)c4cnc(OCC5CCOCC5)c(-c5nccs5)c4)c(Oc4ccc5[nH]ccc5c4)c3)CC2)=C(c2ccc(Cl)cc2)C1` [Example 331, 4-(4-{[2-(4-chlorophenyl)-4,4-dimethylcyclohex-1-en-1-yl]methyl}piperazin-1-yl)-2-(1H-indol-5-yloxy)-N-{[6-(tetrahydro-2H-pyran-4-ylmethoxy)-5-(1,3-thiazol-2-yl)pyridin-3-yl]sulfonyl}benzamide], the values for the Ki on GST-Bcl-2 and on GST-Bcl-XL were 8.27 nM and above 660 nM, respectively. The 50% effective concentration (EC50) with FL5.12/Bcl-2 cells is above 500 nM.

`COCCNC(=O)c1ccc(S(=O)(=O)NC(=O)c2ccc(N3CCN(CC4=C(c5ccc(Cl)cc5)CC(C)(C)CC4)CC3)cc2Oc2ccc3[nH]ccc3c2)cc1` [Example 332, 4-(4-{[2-(4-chlorophenyl)-4,4-dimethylcyclohex-1-en-1-yl]methyl}piperazin-1-yl)-2-(1H-indol-5-yloxy)-N-[(4-{[(2-methoxyethyl)amino]carbonyl}phenyl)sulfonyl]benzamide]: the Ki at GST-Bcl-2 is 12.6 nM; on GST-Bcl-XL, above 660 nM. The EC50 in the experiment with FL5.12/Bcl-2 cells was above 500 nM.

In the case of `CC1(C)CCC(CN2CCN(c3ccc(C(=O)NS(=O)(=O)c4cnc(OCC5CCOCC5)c(C#N)c4)c(Oc4ccc5[nH]ccc5c4)c3)CC2)=C(c2ccc(Cl)cc2)C1` [Example 333, 4-(4-{[2-(4-chlorophenyl)-4,4-dimethylcyclohex-1-en-1-yl]methyl}piperazin-1-yl)-N-{[5-cyano-6-(tetrahydro-2H-pyran-4-ylmethoxy)pyridin-3-yl]sulfonyl}-2-(1H-indol-5-yloxy)benzamide], the Ki at GST-Bcl-2 is 0.089 nM; at GST-Bcl-XL, above 660 nM. Besides, the EC50 in the experiment with FL5.12/Bcl-2 cells came to 109 nM.

A word on the Ki: it is a measure of affinity in units of concentration, obtained from inhibition or displacement. A higher Ki goes with a looser hold on the target. What is called EC50 is the concentration giving half of the maximal effect.
